From patent US12290510B2, “Polyvalent derivatives of emoxypine” (Riesner Verwaltungs GMBH, priority 2019, dated 2025)
Where “and” joins values, the source holds several entries; their conditions need not be identical. Equal entries are not always repeated.

Key:
[1] = molecular target: T1, α-synuclein fibrils (Homo sapiens, UniProt P37840); test: Disaggregation of α-synuclein fibrils, thioflavin T (ThT) fluorescence emission at 482 nm; type: biochemical
Experimental: FIG. 1A depicts emission intensity of ThT at 482 nm (λexc=450 nm), in the presence of α-synuclein amyloids fibrils, with and without MHP-tren triimine (r70, light blue trace and yellow trace, respectively) from 1 minute to 3 days (72 h), where the bars from left to right in each set of histograms represents: control ThT; MHP tren-triimine; Aggregates+ThT+MHP tren-triimine; control ThT+MHP tren-triimine; and Aggregates+ThT, respectively.
FIG. 2 depicts emission intensity of ThT at 482 nm (λexc=450 nm), in the presence of α-synuclein amyloids fibrils, using Emoxypine r200, Emoxypine r100, MHP-tren triimine (also known as tri imino-emoxypine) r70 (light blue trace and yellow trace, respectively) from 1 minute to 3 days (72 h), where the bars from left to right in each set of histograms represents: α-synuclein+Emoxypine r200; α-synuclein+Emoxypine r100; and α-synuclein+MHP tren-triimine r70, respectively. The far leftmost bar of the graph, titled “Before addition of SOM” represents a sample without emoxypine or MHP tren-triimine, i.e. with 100% of α-synuclein aggregates left.
Disaggregation of α-synuclein fibrils using MHP-tren triimine (i.e., tri imino-emoxypine) was studied. The ratio of MHP-tren triimine:α-synuclein was 70 (r70).
Fluorescence measurements were performed by comparing the emission of thiovlavin T (ThT) in the presence of aggregates, without and with MHP-tren triimine at different times after the addition of MHP-tren triimine, from one minute to several days (λ emission of interest=482 nm, λ excitation=450 nm). Fluorescent measurements were also performed by comparing the emission of thiovlavin T (ThT) in the presence of aggregates and either emoxypine or MHP-tren triimine. The results (see, FIG. 1A-1B, FIG. 2 and Tables 1-2, below) show higher solubilization percentages using MHP-tren triimine as compared to emoxypine. […] The long-term efficiency of the triimine molecule is therefore better than that of its triamide analogue.

[2] = molecular target: T1, α-synuclein fibrils; test: Scanning electron microscope (SEM) images of α-synuclein fibrils without and with the triimine; settings: sample with the triimine molecule (FIG. 3B) vs “superaggregated” structures without (FIG. 3A)

Row | Percent of Solubilization ([1]; r100, 1 min) | Percent of Solubilization ([1]; r100, 30 min) | Percent of Solubilization ([1]; r100, 1 h) | Percent of Solubilization ([1]; r100, 24 h) | Percent of Solubilization ([1]; r100, 48 h) | Percent of Solubilization ([1]; r100, 72 h) | Percent of Solubilization ([1]; r200, 1 min) | Percent of Solubilization ([1]; r200, 30 min) | Percent of Solubilization ([1]; r200, 1 h) | Percent of Solubilization ([1]; r200, 24 h) | Percent of Solubilization ([1]; r200, 48 h) | Percent of Solubilization ([1]; r200, 72 h) | Percentage of solubilization ([1]; MHP-tren triimine:α-synuclein ratio 70 (r70), 1 min after addition) | Percentage of solubilization ([1]; r70, 30 min after addition) | Percentage of solubilization ([1]; r70, 1 h after addition) | Percentage of solubilization ([1]; r70, 24 h after addition) | Percentage of solubilization ([1]; r70, 48 h after addition) | Percentage of solubilization ([1]; r70, 72 h (3 days) after addition) | SMILES | Appearance of α-synuclein sample in SEM images [2]
1 | 50% | 59% | 48% | 53% | 49% | 62% | 69% | 65% | 61% | 60% | 61% | 63% | – | – | – | – | – | – | CCc1nc(C)ccc1O [Emoxypine, emoxypine] | –
2 | – | – | – | – | – | – | – | – | – | – | – | – | 27% | 47.1% and 57% | 71% | 72.8% and 73% | 79.5% and 79% | 86% and 86.1% | Cc1ccc(O)c(/C=N/CCN(CC/N=C/c2nc(C)ccc2O)CC/N=C/c2nc(C)ccc2O)n1 [MHP-tren triimine, tri imino-emoxypine] | no apparent fiber or big aggregates-only small dots are visible
